Assay results reported in PubChem BioAssay AID1963829 (Molecular Pharmacology Branch, DTP, NCI, 2024).

These compounds were tested on 935938-334-R-J1-PDC complex spheroid viability (assay: Anticancer human tumor 935938-334-R-J1-PDC patient-derived small intestine adenocarcinoma cell line growth inhibition [POLQ]). Conditions: second compound 0.0316 µM; first compound 3.16 µM; hits give low values.
Summary of the method: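 Patient-derived tumour cells were co-cultured with HUVEC and mesenchymal stem cells as multicellular spheroids at 37 °C. They were treated with POLQ inhibitors (novobiocin, ART-558, RP6685) alone or combined with other agents. Top concentrations were at or near clinical Cmax (otherwise 10 microM; SN-38 at 1 microM), decreasing in half-log steps.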
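Further: spheroids exposed to drugs for seven days before viability read; 100% = DMSO vehicle control wells.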

| Compound | viability, T/C |
| --- | --- |
| O=C(Nc1ccc(O)c(NS(=O)(=O)c2ccc(F)cc2)c1)c1ccc(-c2ccccc2)cc1 + Cc1cccc(N(C)C(=O)C2C(O)CCN2c2nc(C)cc(C(F)(F)F)c2C#N)c1 | 89.3% |
| COc1cc(C2c3cc4c(cc3C(OC3OC5COC(C)OC5C(O)C3O)C3COC(=O)C23)OCO4)cc(OC)c1O (configuration not stated) + Cc1cccc(N(C)C(=O)C2C(O)CCN2c2nc(C)cc(C(F)(F)F)c2C#N)c1 | 33.3% |
| CC1COCCN1c1cc(C2(S(C)(=N)=O)CC2)nc(-c2ccnc3[nH]ccc23)n1 (configuration not stated) + COC1C(OC(N)=O)C(O)C(Oc2ccc3c(O)c(NC(=O)c4ccc(O)c(CC=C(C)C)c4)c(=O)oc3c2C)OC1(C)C | 58.6% |
| COc1cccc2c1C(=O)c1c(O)c3c(c(O)c1C2=O)CC(O)(C(=O)CO)CC3OC1CC(N)C(O)C(C)O1 (configuration not stated) + Cc1cccc(N(C)C(=O)C2C(O)CCN2c2nc(C)cc(C(F)(F)F)c2C#N)c1 | 7.49% |

Same assay, conditions: second compound 0.0316 µM; first compound 10 µM; hits give low values

| Compound | viability, T/C |
| --- | --- |
| COc1ccc([C@@H](O)c2cc(-c3ncnc4cc(N5CCOCC5)ccc34)c(F)cc2Cl)nn1 + COC1C(OC(N)=O)C(O)C(Oc2ccc3c(O)c(NC(=O)c4ccc(O)c(CC=C(C)C)c4)c(=O)oc3c2C)OC1(C)C | 36.3% |
| Nc1ccn(C2OC(CO)C(O)C2(F)F)c(=O)n1 (configuration not stated) + Cc1cccc(N(C)C(=O)C2C(O)CCN2c2nc(C)cc(C(F)(F)F)c2C#N)c1 | 16.3% |
| COc1cc2cc(C(=O)CCC(=O)O)sc2cc1OC + Cc1cccc(N(C)C(=O)C2C(O)CCN2c2nc(C)cc(C(F)(F)F)c2C#N)c1 | 80.8% |
| O=C(c1cc(Cc2n[nH]c(=O)c3ccccc23)ccc1F)N1CCN(C(=O)C2CC2)CC1 + COC1C(OC(N)=O)C(O)C(Oc2ccc3c(O)c(NC(=O)c4ccc(O)c(CC=C(C)C)c4)c(=O)oc3c2C)OC1(C)C | 64.6% |
| O=C(Nc1ccc(O)c(NS(=O)(=O)c2ccc(F)cc2)c1)c1ccc(-c2ccccc2)cc1 + Cc1cccc(N(C)C(=O)C2C(O)CCN2c2nc(C)cc(C(F)(F)F)c2C#N)c1 | 64.8% |
| COc1cc(C2c3cc4c(cc3C(OC3OC5COC(C)OC5C(O)C3O)C3COC(=O)C23)OCO4)cc(OC)c1O (configuration not stated) + Cc1cccc(N(C)C(=O)C2C(O)CCN2c2nc(C)cc(C(F)(F)F)c2C#N)c1 | 32.7% |
| CC1COCCN1c1cc(C2(S(C)(=N)=O)CC2)nc(-c2ccnc3[nH]ccc23)n1 (configuration not stated) + COC1C(OC(N)=O)C(O)C(Oc2ccc3c(O)c(NC(=O)c4ccc(O)c(CC=C(C)C)c4)c(=O)oc3c2C)OC1(C)C | 23.1% |
| COc1cccc2c1C(=O)c1c(O)c3c(c(O)c1C2=O)CC(O)(C(=O)CO)CC3OC1CC(N)C(O)C(C)O1 (configuration not stated) + Cc1cccc(N(C)C(=O)C2C(O)CCN2c2nc(C)cc(C(F)(F)F)c2C#N)c1 | 4.38% |

Same assay, conditions: second compound 0.1 µM; first compound 0.0316 µM; hits give low values

| Compound | viability, T/C |
| --- | --- |
| COc1ccc([C@@H](O)c2cc(-c3ncnc4cc(N5CCOCC5)ccc34)c(F)cc2Cl)nn1 + COC1C(OC(N)=O)C(O)C(Oc2ccc3c(O)c(NC(=O)c4ccc(O)c(CC=C(C)C)c4)c(=O)oc3c2C)OC1(C)C | 111% |
| Nc1ccn(C2OC(CO)C(O)C2(F)F)c(=O)n1 (configuration not stated) + Cc1cccc(N(C)C(=O)C2C(O)CCN2c2nc(C)cc(C(F)(F)F)c2C#N)c1 | 32.9% |
| COc1cc2cc(C(=O)CCC(=O)O)sc2cc1OC + Cc1cccc(N(C)C(=O)C2C(O)CCN2c2nc(C)cc(C(F)(F)F)c2C#N)c1 | 100% |
| O=C(c1cc(Cc2n[nH]c(=O)c3ccccc23)ccc1F)N1CCN(C(=O)C2CC2)CC1 + COC1C(OC(N)=O)C(O)C(Oc2ccc3c(O)c(NC(=O)c4ccc(O)c(CC=C(C)C)c4)c(=O)oc3c2C)OC1(C)C | 101% |
| O=C(Nc1ccc(O)c(NS(=O)(=O)c2ccc(F)cc2)c1)c1ccc(-c2ccccc2)cc1 + Cc1cccc(N(C)C(=O)C2C(O)CCN2c2nc(C)cc(C(F)(F)F)c2C#N)c1 | 83% |
| COc1cc(C2c3cc4c(cc3C(OC3OC5COC(C)OC5C(O)C3O)C3COC(=O)C23)OCO4)cc(OC)c1O (configuration not stated) + Cc1cccc(N(C)C(=O)C2C(O)CCN2c2nc(C)cc(C(F)(F)F)c2C#N)c1 | 104% |
| CC1COCCN1c1cc(C2(S(C)(=N)=O)CC2)nc(-c2ccnc3[nH]ccc23)n1 (configuration not stated) + COC1C(OC(N)=O)C(O)C(Oc2ccc3c(O)c(NC(=O)c4ccc(O)c(CC=C(C)C)c4)c(=O)oc3c2C)OC1(C)C | 122% |
| COc1cccc2c1C(=O)c1c(O)c3c(c(O)c1C2=O)CC(O)(C(=O)CO)CC3OC1CC(N)C(O)C(C)O1 (configuration not stated) + Cc1cccc(N(C)C(=O)C2C(O)CCN2c2nc(C)cc(C(F)(F)F)c2C#N)c1 | 63.8% |

Same assay, conditions: second compound 0.1 µM; first compound 0.1 µM; hits give low values

| Compound | viability, T/C |
| --- | --- |
| COc1ccc([C@@H](O)c2cc(-c3ncnc4cc(N5CCOCC5)ccc34)c(F)cc2Cl)nn1 + COC1C(OC(N)=O)C(O)C(Oc2ccc3c(O)c(NC(=O)c4ccc(O)c(CC=C(C)C)c4)c(=O)oc3c2C)OC1(C)C | 106% |
| Nc1ccn(C2OC(CO)C(O)C2(F)F)c(=O)n1 (configuration not stated) + Cc1cccc(N(C)C(=O)C2C(O)CCN2c2nc(C)cc(C(F)(F)F)c2C#N)c1 | 29.7% |
| COc1cc2cc(C(=O)CCC(=O)O)sc2cc1OC + Cc1cccc(N(C)C(=O)C2C(O)CCN2c2nc(C)cc(C(F)(F)F)c2C#N)c1 | 85.6% |
| O=C(c1cc(Cc2n[nH]c(=O)c3ccccc23)ccc1F)N1CCN(C(=O)C2CC2)CC1 + COC1C(OC(N)=O)C(O)C(Oc2ccc3c(O)c(NC(=O)c4ccc(O)c(CC=C(C)C)c4)c(=O)oc3c2C)OC1(C)C | 99.1% |
| O=C(Nc1ccc(O)c(NS(=O)(=O)c2ccc(F)cc2)c1)c1ccc(-c2ccccc2)cc1 + Cc1cccc(N(C)C(=O)C2C(O)CCN2c2nc(C)cc(C(F)(F)F)c2C#N)c1 | 73.9% |
| COc1cc(C2c3cc4c(cc3C(OC3OC5COC(C)OC5C(O)C3O)C3COC(=O)C23)OCO4)cc(OC)c1O (configuration not stated) + Cc1cccc(N(C)C(=O)C2C(O)CCN2c2nc(C)cc(C(F)(F)F)c2C#N)c1 | 94.6% |
| CC1COCCN1c1cc(C2(S(C)(=N)=O)CC2)nc(-c2ccnc3[nH]ccc23)n1 (configuration not stated) + COC1C(OC(N)=O)C(O)C(Oc2ccc3c(O)c(NC(=O)c4ccc(O)c(CC=C(C)C)c4)c(=O)oc3c2C)OC1(C)C | 102% |
| COc1cccc2c1C(=O)c1c(O)c3c(c(O)c1C2=O)CC(O)(C(=O)CO)CC3OC1CC(N)C(O)C(C)O1 (configuration not stated) + Cc1cccc(N(C)C(=O)C2C(O)CCN2c2nc(C)cc(C(F)(F)F)c2C#N)c1 | 48.5% |

Same assay, conditions: second compound 0.1 µM; first compound 0.316 µM; hits give low values

| Compound | viability, T/C |
| --- | --- |
| COc1ccc([C@@H](O)c2cc(-c3ncnc4cc(N5CCOCC5)ccc34)c(F)cc2Cl)nn1 + COC1C(OC(N)=O)C(O)C(Oc2ccc3c(O)c(NC(=O)c4ccc(O)c(CC=C(C)C)c4)c(=O)oc3c2C)OC1(C)C | 75% |
| Nc1ccn(C2OC(CO)C(O)C2(F)F)c(=O)n1 (configuration not stated) + Cc1cccc(N(C)C(=O)C2C(O)CCN2c2nc(C)cc(C(F)(F)F)c2C#N)c1 | 21.4% |
| COc1cc2cc(C(=O)CCC(=O)O)sc2cc1OC + Cc1cccc(N(C)C(=O)C2C(O)CCN2c2nc(C)cc(C(F)(F)F)c2C#N)c1 | 92.4% |
| O=C(c1cc(Cc2n[nH]c(=O)c3ccccc23)ccc1F)N1CCN(C(=O)C2CC2)CC1 + COC1C(OC(N)=O)C(O)C(Oc2ccc3c(O)c(NC(=O)c4ccc(O)c(CC=C(C)C)c4)c(=O)oc3c2C)OC1(C)C | 95.9% |
| O=C(Nc1ccc(O)c(NS(=O)(=O)c2ccc(F)cc2)c1)c1ccc(-c2ccccc2)cc1 + Cc1cccc(N(C)C(=O)C2C(O)CCN2c2nc(C)cc(C(F)(F)F)c2C#N)c1 | 76.1% |
| COc1cc(C2c3cc4c(cc3C(OC3OC5COC(C)OC5C(O)C3O)C3COC(=O)C23)OCO4)cc(OC)c1O (configuration not stated) + Cc1cccc(N(C)C(=O)C2C(O)CCN2c2nc(C)cc(C(F)(F)F)c2C#N)c1 | 73.7% |
| CC1COCCN1c1cc(C2(S(C)(=N)=O)CC2)nc(-c2ccnc3[nH]ccc23)n1 (configuration not stated) + COC1C(OC(N)=O)C(O)C(Oc2ccc3c(O)c(NC(=O)c4ccc(O)c(CC=C(C)C)c4)c(=O)oc3c2C)OC1(C)C | 82.3% |
| COc1cccc2c1C(=O)c1c(O)c3c(c(O)c1C2=O)CC(O)(C(=O)CO)CC3OC1CC(N)C(O)C(C)O1 (configuration not stated) + Cc1cccc(N(C)C(=O)C2C(O)CCN2c2nc(C)cc(C(F)(F)F)c2C#N)c1 | 31.6% |

Same assay, conditions: second compound 0.1 µM; first compound 1 µM; hits give low values

| Compound | viability, T/C |
| --- | --- |
| COc1ccc([C@@H](O)c2cc(-c3ncnc4cc(N5CCOCC5)ccc34)c(F)cc2Cl)nn1 + COC1C(OC(N)=O)C(O)C(Oc2ccc3c(O)c(NC(=O)c4ccc(O)c(CC=C(C)C)c4)c(=O)oc3c2C)OC1(C)C | 89.2% |
| Nc1ccn(C2OC(CO)C(O)C2(F)F)c(=O)n1 (configuration not stated) + Cc1cccc(N(C)C(=O)C2C(O)CCN2c2nc(C)cc(C(F)(F)F)c2C#N)c1 | 21.1% |
| COc1cc2cc(C(=O)CCC(=O)O)sc2cc1OC + Cc1cccc(N(C)C(=O)C2C(O)CCN2c2nc(C)cc(C(F)(F)F)c2C#N)c1 | 95.7% |
| O=C(c1cc(Cc2n[nH]c(=O)c3ccccc23)ccc1F)N1CCN(C(=O)C2CC2)CC1 + COC1C(OC(N)=O)C(O)C(Oc2ccc3c(O)c(NC(=O)c4ccc(O)c(CC=C(C)C)c4)c(=O)oc3c2C)OC1(C)C | 90.8% |
| O=C(Nc1ccc(O)c(NS(=O)(=O)c2ccc(F)cc2)c1)c1ccc(-c2ccccc2)cc1 + Cc1cccc(N(C)C(=O)C2C(O)CCN2c2nc(C)cc(C(F)(F)F)c2C#N)c1 | 109% |
| COc1cc(C2c3cc4c(cc3C(OC3OC5COC(C)OC5C(O)C3O)C3COC(=O)C23)OCO4)cc(OC)c1O (configuration not stated) + Cc1cccc(N(C)C(=O)C2C(O)CCN2c2nc(C)cc(C(F)(F)F)c2C#N)c1 | 47.3% |
